Test results as given in patent US20250320203A1, “4-(3H-PYRAZOLO[4,3-F]QUINOLIN-7-YL)-N-(2-(DIMETHYLAMINO)ETHYL)BENZAMIDE- OR HYDROXAMIC ACID COMPOUNDS, COMPOSITIONS, AND METHODS OF USE” (Purdue Research Foundation, priority 2022, published 2025).

Legend:
[1] = tested on: Molm-14 cells (FLT3-ITD); assay: AML cell line growth inhibition (CellTiter-Blue), 50 nM; format: cell-based; settings: Homo sapiens, 50 nM inhibitor conc., means of triplicates, read-out: Percent Inhibition (%) Molm-14 growth
Protocol: (§1) With the amide kinase inhibitor library established, kinase inhibition and AML cell line (Molm-14, which harbors FLT3-ITD) growth inhibition were analyzed (Table 1). More specifically, Haspin and FLT3 inhibition were evaluated in-house via ADP Glo Kinase Assay (Promega, Madison, WI). […] Values reported are means of triplicates.
More specifically, cells were cultured to confluence in RPMI medium supplemented with 10% fetal bovine serum and 1× Penicillin-Streptomycin (Gibco™). Cells were plated at 5,000 cells/well in 96 well plates. After 24-hour incubation at 37° C. in a 5% CO2 incubator, compounds diluted in the same media were added to the indicated final concentration and allowed to incubate at 37° C. in a 5% CO2 incubator for 72 hours. Viability was determined using CellTiter-Blue® Cell Viability Assay (Promega, Madison, WI) with absorbance readings at 570 nm performed on a Cytation™ 5 Cell Imaging Multi-Mode Reader (BioTek) 3 hours after addition. Appropriate vehicle and cell-free controls were included. GI50 readings were confirmed by two scientists on two separate days.

[2] = molecular target: T1, FLT3 (Homo sapiens, UniProt P36888); assay: ADP Glo Kinase Assay, FLT3, 50 nM inhibitor; format: biochemical; settings: 50 nM inhibitor conc.; means of triplicates; read-out: Percent Inhibition (%) FLT3
T1 sequence (P36888 27-993): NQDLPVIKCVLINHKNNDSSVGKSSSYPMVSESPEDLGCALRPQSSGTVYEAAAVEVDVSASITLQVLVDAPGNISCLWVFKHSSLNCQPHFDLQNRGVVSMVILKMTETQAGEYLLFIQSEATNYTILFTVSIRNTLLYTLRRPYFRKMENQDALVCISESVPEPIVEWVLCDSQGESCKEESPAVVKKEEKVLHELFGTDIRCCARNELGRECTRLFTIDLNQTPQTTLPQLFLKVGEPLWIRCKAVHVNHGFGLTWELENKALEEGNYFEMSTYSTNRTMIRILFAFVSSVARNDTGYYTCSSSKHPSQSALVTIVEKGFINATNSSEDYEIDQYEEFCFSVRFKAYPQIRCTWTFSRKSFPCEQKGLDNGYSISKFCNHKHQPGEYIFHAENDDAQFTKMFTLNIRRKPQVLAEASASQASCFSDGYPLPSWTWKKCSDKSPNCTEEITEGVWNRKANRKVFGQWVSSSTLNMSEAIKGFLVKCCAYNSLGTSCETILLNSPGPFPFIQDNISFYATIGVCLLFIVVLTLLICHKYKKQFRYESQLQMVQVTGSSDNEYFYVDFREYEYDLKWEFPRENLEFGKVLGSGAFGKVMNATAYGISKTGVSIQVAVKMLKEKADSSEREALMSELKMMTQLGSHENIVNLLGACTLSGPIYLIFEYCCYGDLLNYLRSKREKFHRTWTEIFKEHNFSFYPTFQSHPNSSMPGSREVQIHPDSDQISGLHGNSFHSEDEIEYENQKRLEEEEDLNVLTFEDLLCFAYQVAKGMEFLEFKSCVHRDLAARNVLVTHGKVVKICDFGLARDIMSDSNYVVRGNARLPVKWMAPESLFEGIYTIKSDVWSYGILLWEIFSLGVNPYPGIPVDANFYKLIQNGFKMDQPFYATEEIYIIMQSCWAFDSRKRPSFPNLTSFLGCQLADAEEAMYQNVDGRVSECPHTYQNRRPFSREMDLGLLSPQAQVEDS
Protocol: as §1
(§2) Briefly, the ADP-Glo Kinase Assay Kit was used to determine inhibition of haspin. Kinase Buffer (SignalChem Cat #K01-09; 25 mM MOPS, pH 7.2, 12.5 mM β-glycerol-phosphate, 25 mM MgCl2, 2 mM EDTA) was supplemented with dithiothreitol (DTT) (0.2 mM) and bovine serum albumin (BSA) (40 μg/mL) immediately prior to use. Reaction volumes of 5 μL containing 9 ng/μL kinase, 10 μM ATP, 50 nM inhibitor, and the appropriate peptide substrate (20 μM) were incubated for 3 hours, and then quenched with an equal volume (5 μL) of GLO reagent. After 40 minutes, 10 μL DET reagent was added and incubated for 1 hour before visualization on a Cytation™ 5 Cell Imaging Multi-Mode Reader (BioTek).

[3] = molecular target: T2, haspin (Homo sapiens, UniProt Q8TF76); assay: ADP Glo Kinase Assay, haspin, 50 nM inhibitor; format: biochemical; settings: 50 nM inhibitor conc.; means of triplicates; read-out: Percent Inhibition (%) Haspin
T2 sequence (Q8TF76 1-798): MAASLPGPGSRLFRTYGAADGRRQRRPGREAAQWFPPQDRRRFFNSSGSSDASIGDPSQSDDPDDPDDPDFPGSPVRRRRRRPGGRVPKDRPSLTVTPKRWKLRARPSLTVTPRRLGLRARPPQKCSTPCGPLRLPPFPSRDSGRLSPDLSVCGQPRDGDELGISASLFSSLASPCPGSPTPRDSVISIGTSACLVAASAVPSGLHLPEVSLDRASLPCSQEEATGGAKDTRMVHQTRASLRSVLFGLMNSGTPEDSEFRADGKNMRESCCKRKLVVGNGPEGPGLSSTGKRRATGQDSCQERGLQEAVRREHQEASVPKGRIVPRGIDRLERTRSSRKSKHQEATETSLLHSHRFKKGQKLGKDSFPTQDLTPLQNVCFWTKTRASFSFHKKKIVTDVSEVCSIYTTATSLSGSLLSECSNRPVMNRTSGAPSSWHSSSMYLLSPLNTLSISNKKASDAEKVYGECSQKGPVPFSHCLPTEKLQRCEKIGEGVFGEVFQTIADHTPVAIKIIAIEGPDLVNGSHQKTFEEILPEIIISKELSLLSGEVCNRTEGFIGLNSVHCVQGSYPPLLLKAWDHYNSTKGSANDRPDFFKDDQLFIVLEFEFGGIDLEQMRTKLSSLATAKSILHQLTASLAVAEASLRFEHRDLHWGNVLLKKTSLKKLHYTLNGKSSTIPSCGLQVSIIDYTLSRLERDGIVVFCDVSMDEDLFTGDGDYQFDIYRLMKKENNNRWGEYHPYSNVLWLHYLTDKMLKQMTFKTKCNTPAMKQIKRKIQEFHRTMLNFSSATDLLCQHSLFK
Protocol: as §1, §2

[4] = molecular target: CDK12/CyclinK (Homo sapiens, UniProt Q9NYV4); assay: CDK12/CyclinK inhibition (IC50); format: biochemical
CDK12/CyclinK, sequence (Q9NYV4 whole entry): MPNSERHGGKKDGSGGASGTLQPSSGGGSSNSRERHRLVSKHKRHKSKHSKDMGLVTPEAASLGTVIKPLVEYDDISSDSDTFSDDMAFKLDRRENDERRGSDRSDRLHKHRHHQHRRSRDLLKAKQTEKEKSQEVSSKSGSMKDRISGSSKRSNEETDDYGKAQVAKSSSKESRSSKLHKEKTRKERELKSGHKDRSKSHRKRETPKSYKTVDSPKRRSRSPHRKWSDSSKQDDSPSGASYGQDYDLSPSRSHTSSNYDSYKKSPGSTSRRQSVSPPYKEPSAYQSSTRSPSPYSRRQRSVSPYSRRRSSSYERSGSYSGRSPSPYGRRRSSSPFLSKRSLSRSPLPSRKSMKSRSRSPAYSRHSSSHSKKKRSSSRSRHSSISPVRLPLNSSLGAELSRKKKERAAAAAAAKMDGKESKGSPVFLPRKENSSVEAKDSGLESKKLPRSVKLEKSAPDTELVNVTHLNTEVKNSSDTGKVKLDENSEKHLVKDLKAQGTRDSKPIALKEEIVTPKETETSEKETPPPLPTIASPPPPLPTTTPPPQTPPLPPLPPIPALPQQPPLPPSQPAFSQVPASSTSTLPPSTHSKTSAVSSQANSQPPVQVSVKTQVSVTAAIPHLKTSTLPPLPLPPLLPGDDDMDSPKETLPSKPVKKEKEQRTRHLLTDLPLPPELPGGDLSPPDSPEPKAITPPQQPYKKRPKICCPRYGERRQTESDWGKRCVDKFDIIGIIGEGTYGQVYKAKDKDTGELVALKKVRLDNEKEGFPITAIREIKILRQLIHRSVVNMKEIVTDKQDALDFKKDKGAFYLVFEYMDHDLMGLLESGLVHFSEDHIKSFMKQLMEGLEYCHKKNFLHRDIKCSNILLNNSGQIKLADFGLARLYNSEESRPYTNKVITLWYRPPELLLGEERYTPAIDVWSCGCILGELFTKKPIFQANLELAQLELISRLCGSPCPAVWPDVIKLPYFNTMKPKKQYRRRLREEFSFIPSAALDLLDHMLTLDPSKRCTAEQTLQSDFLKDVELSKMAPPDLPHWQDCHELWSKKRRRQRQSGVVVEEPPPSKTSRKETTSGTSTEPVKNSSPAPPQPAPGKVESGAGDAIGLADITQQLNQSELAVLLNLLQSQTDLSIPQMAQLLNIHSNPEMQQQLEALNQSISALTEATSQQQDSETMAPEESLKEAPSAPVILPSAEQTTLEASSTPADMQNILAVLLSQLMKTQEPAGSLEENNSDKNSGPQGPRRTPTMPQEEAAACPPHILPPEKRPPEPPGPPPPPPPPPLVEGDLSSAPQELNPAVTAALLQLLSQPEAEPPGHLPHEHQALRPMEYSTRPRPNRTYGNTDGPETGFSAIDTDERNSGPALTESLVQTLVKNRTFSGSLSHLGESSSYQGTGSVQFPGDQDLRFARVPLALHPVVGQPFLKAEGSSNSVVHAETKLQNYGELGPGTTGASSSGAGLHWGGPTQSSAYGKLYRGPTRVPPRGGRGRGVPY
CDK12/CyclinK, sequence (O75909 whole entry partner): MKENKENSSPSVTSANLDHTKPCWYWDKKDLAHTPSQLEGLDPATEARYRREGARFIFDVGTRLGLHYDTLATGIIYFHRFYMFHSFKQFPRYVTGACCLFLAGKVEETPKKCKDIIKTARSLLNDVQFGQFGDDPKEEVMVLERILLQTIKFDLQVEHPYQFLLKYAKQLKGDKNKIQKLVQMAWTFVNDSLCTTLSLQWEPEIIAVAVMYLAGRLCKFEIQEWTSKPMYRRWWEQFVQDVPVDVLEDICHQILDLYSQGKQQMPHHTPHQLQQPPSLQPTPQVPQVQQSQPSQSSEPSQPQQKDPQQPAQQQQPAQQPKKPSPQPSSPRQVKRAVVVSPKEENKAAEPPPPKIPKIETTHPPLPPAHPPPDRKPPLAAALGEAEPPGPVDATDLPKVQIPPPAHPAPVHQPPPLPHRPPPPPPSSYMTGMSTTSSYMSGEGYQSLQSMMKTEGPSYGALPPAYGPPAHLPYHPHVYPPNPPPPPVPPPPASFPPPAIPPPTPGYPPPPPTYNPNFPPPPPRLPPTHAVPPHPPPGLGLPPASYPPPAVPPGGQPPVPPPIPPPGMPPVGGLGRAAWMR

[5] = molecular target: CDK2 (Homo sapiens, UniProt P24941); assay: CDK2 inhibition (IC50); format: biochemical

Work on `O=C(NCc1c[nH]cn1)c1ccc(-c2nc3ccc4[nH]ncc4c3c3c2CCCC3)cc1` [Compound 4, N-((1H-imidazol-4-yl)methyl)-4-(8,9,10,11-tetrahydro-3H-pyrazolo[4,3-a]phenanthridin-7-yl)benzamide] yielded an inhibition at 0.05 µM [1] of 67%, an inhibition at 0.05 µM [2] of 49% and an inhibition at 0.05 µM [3] of 54%.

`O=C(NCCn1ccnc1)c1ccc(-c2nc3ccc4[nH]ncc4c3c3c2CCCC3)cc1` [Compound 5, N-(2-(1H-imidazol-1-yl)ethyl)-4-(8,9,10,11-tetrahydro-3H-pyrazolo[4,3-a]phenanthridin-7-yl)benzamide] was tested, and the inhibition at 0.05 µM [1] was 42%, the inhibition at 0.05 µM [2] was 31% and the inhibition at 0.05 µM [3] was 33%.

Molecule `O=C(NCc1ncc[nH]1)c1ccc(-c2nc3ccc4[nH]ncc4c3c3c2CCCC3)cc1` [Compound 6, N-((1HI-imidazol-2-yl)methyl)-4-(8,9,10,11-tetrahydro-3H-pyrazolo[4,3-a]phenanthridin-7-yl)benzamide] has an inhibition at 0.05 µM [1] of 84%, an inhibition at 0.05 µM [2] of 76% and an inhibition at 0.05 µM [3] of 77%.

Work on `Cn1ccnc1CNC(=O)c1ccc(-c2nc3ccc4[nH]ncc4c3c3c2CCCC3)cc1` [Compound 7, N-((1-methyl-1H-imidazol-2-yl)methyl)-4-(8,9,10,11-tetrahydro-3H-pyrazolo[4,3-a]phenanthridin-7-yl)benzamide] yielded an inhibition at 0.05 µM [1] of 21%, an inhibition at 0.05 µM [2] of 14% and an inhibition at 0.05 µM [3] of 26%.

`O=C(NCc1ncn[nH]1)c1ccc(-c2nc3ccc4[nH]ncc4c3c3c2CCCC3)cc1` [Compound 8, N-((4H-1,2,4-triazol-3-yl)methyl)-4-(8,9,10,11-tetrahydro-3H-pyrazolo[4,3-a]phenanthridin-7-yl)benzamide] gave an inhibition at 0.05 µM [1] of 48%, an inhibition at 0.05 µM [2] of 49% and an inhibition at 0.05 µM [3] of 57%.

`O=C(NCc1ncc[nH]1)c1ccc(-c2nc3ccc4[nH]ncc4c3c3c2CCCC3)c(F)c1` [Compound 9, N-((1H-imidazol-2-yl)methyl)-3-fluoro-4-(8,9,10,11-tetrahydro-3H-pyrazolo[4,3-a]phenanthridin-7-yl)benzamide] gave an inhibition at 0.05 µM [1] of 87%, an inhibition at 0.05 µM [2] of 88% and an inhibition at 0.05 µM [3] of 53%.

`O=C(NCc1nnn[nH]1)c1ccc(-c2nc3ccc4[nH]ncc4c3c3c2CCCC3)cc1` [Compound 10, N-((1H-tetrazol-5-yl)methyl)-4-(8,9,10,11-tetrahydro-3H-pyrazolo[4,3-a]phenanthridin-7-yl)benzamide] was tested, and the inhibition at 0.05 µM [1] was 50%, the inhibition at 0.05 µM [2] was 51% and the inhibition at 0.05 µM [3] was 57%.

`O=C(NCc1ncc[nH]1)c1ccc(-c2nc3ccc4[nH]ncc4c3c3c2CCCC3)cc1F` [Compound 11, N-((1H-imidazol-2-yl)methyl)-2-fluoro-4-(8,9,10,11-tetrahydro-3H-pyrazolo[4,3-a]phenanthridin-7-yl)benzamide] gave an inhibition at 0.05 µM [1] of 80%, an inhibition at 0.05 µM [2] of 85% and an inhibition at 0.05 µM [3] of 76%.

`O=C(NCc1cc[nH]c1)c1ccc(-c2nc3ccc4[nH]ncc4c3c3c2CCCC3)cc1` [Compound 12, N-((1H-pyrrol-3-yl)methyl)-4-(8,9,10,11-tetrahydro-3H-pyrazolo[4,3-a]phenanthridin-7-yl)benzamide] gave an inhibition at 0.05 µM [1] of 39%, an inhibition at 0.05 µM [2] of 46% and an inhibition at 0.05 µM [3] of 41%.

Molecule `O=C(NCc1nccs1)c1ccc(-c2nc3ccc4[nH]ncc4c3c3c2CCCC3)cc1` [Compound 13, 4-(8,9,10,11-tetrahydro-3HI-pyrazolo[4,3-a]phenanthridin-7-yl)-N-(thiazol-2-ylmethyl)benzamide] has an inhibition at 0.05 µM [1] of 55%, an inhibition at 0.05 µM [2] of 53% and an inhibition at 0.05 µM [3] of 68%.

With `Cc1c[nH]c(CNC(=O)c2ccc(-c3nc4ccc5[nH]ncc5c4c4c3CCCC4)cc2)n1` [Compound 14, N-((4-methyl-1H-imidazol-2-yl)methyl)-4-(8,9,10,11-tetrahydro-3H-pyrazolo[4,3-a]phenanthridin-7-yl)benzamide] the inhibition at 0.05 µM [2] was 94% and the inhibition at 0.05 µM [3] was 97%.

In the case of `O=C(NCCc1ncc[nH]1)c1ccc(-c2nc3ccc4[nH]ncc4c3c3c2CCCC3)cc1` [Compound 15, N-(2-(1H-imidazol-2-yl)ethyl)-4-(8,9,10,11-tetrahydro-3H-pyrazolo[4,3-a]phenanthridin-7-yl)benzamide], the inhibition at 0.05 µM [1] is reported as 73%, the inhibition at 0.05 µM [2] is reported as 71% and the inhibition at 0.05 µM [3] is reported as 78%.

For `O=C(NO)c1ccc(-c2nc3ccc4[nH]ncc4c3c3c2CCCC3)cc1` [Compound HSD1993, N-hydroxy-4-(8,9,10,11-tetrahydro-3H-pyrazolo[4,3-a]phenanthridin-7-yl)benzamide], the IC50 [4] was 9 nM and the IC50 [5] was 4 nM.

`CN(C)CCNC(=O)c1ccc(-c2nc3ccc4[nH]ncc4c3c3c2CCCC3)cc1` [Compound HSH2177, N-(2-(dimethylamino)ethyl)-4-(8,9,10,11-tetrahydro-3H-pyrazolo[4,3-a]phenanthridin-7-yl)benzamide] showed an IC50 [4] of 27 nM and an IC50 [5] of 7 nM.

`FC(F)(F)c1n[nH]cc1-c1nc2ccc3[nH]ncc3c2c2c1CCCC2` [HSD1169, reference compound] was tested, and the inhibition at 0.05 µM [1] was 90%, the inhibition at 0.05 µM [2] was 81% and the inhibition at 0.05 µM [3] was 39%.

Molecule `NC(=O)c1ccc(-c2nc3ccc4[nH]ncc4c3c3c2CCCC3)cc1` [HSD1217, reference compound] has an IC50 [5] of 185 nM.

In the case of `CN(C)C/C=C/C(=O)Nc1ccc(C(=O)N2CCC[C@@H](Nc3ncc(Cl)c(-c4c[nH]c5ccccc45)n3)C2)cc1` [THZ531, reference compound], the IC50 [4] is reported as 60 nM.
